Assay results from patent US7074812B2, “Development of muscle mass in a mammal” (Nutraleutical Development Corporation, priority 2002, dated 2006).
Like-named read-outs stand apart in the source and are kept apart here.

Columns and labels:
healthy male mice = conditions: 60 micrograms nicotine/ml drinking water
From the text: To study the effects of nicotine in the diet of mice in combination with exercise, 34 mice were divided into two equal groups. The diet of one group of mice was supplemented with nicotine added to the drinking water and the other group had plain water. Both groups received the same chow and water freely.
The experiment was a double-blind investigative study including a total of 34 healthy male mice that were approximately 9 weeks old, weighing approximately 35 grams. The mice were received one week prior to the start of the study to allow for a week of acclimation to the study site and the handlers. Because mice are active when it is dark and sleep when it is light, an automatic lighting system (12 hour dark/12 hour light) was set up for the duration of the study. The dark cycle was from 9 pm to 9 am and the light cycle from 9 am to 9 pm. The mice were subjected to a 3 week weighted exercise regimen on a treadmill wheel.
The 34 mice were divided in 2 groups of 17 mice each. Group 1 (nicotine treatment) received water laced with nicotine containing 60 micrograms nicotine/ml water and 10 mg saccharine tablet or pinch of a sugar substitute powder. The sugar substitute served to mask the bitter taste of nicotine in the water. Group 2 (placebo or control) followed the same weight exercise regimen as the nicotine treatment group. Their drinking water was plain water with the same amount of saccharine or sugar substitute as in Group 1. Each mouse had access to its water ad libitum daily during the study period, regardless of the group. Weekly water consumption was measured.
Mice in both groups were subjected to a weight/exercise regimen in the morning at the end of the dark cycle around 8:00 am. Weights were affixed to each animal at the beginning of the exercise. The weights were approximately 10% of body weight measured at Day -1 of the study, and adjusted based on body weight, measured weekly. The mice were exercised for 15 minutes per day or until exhaustion, 5 days a week for 3 weeks on a Mouse Forced Exercise Walking/Running Wheel System (Model 80800, Lafayette Instrument, North Lafayette, Ind. 47903). The largest part of the upper hind muscle of the mice was measured with a dial caliper every week. Two measurements on each leg were taken and the average was calculated.

[1] = tested on: males aged 30–59 years old
Procedure: In order to determine the effects of a nicotine supplement on human subjects, a double blind placebo controlled study was conducted. The study tested 32 males aged 30–59 years old. Each participant needed to have been weight-lifting and exercising on a consistent basis for at least one full year prior to the study. The study required each of the 32 males to remain consistent with their current exercise program (minimum of 3×'s per week), required not to add any new exercises to their current program, not add any new supplements to their diet during the six week study and to take the nicotine supplement 30 minutes prior to exercise. The nicotine supplement was 3 micrograms of nicotine in a standard 300 mg capsule containing polyethylene gycol (PEG) as a vehicle. The placebo capsule was identical in all aspects but contained no active (nicotine) ingredients.
The 32 males were subdivided into 4 groups, 2 placebo groups (8 took 1 capsule and 8 took 2 capsules with no active nicotine ingredients prior to exercise). In the other two groups (active), 8 subjects took 3 micrograms of nicotine and 8 took 6 micrograms of nicotine prior to exercise. The individuals were tested in the beginning and conclusion of the study in the following areas: (1) overall body fat/lean muscle ratio (ELG impedance test was used, which is 98% accurate compared to skinfold testing); (2) biceps; (3) upper leg muscle mass; and (4) 10 exercise repetition maximum, for both upper and lower body strength test (bench press and leg press). Participant workouts were logged by each individual in their own notebooks, to ensure consistency and compliance

[2] = 1 capsule (3 micrograms of nicotine), n = 8
[3] = 2 capsules (6 micrograms of nicotine), n = 8
[4] = Nicotine 1 or 2 capsules pooled, n = 16
[5] = individual subjects, six-week study

Compound: CN1CCCC1c1cccnc1 (stereo not shown) [Nicotine, nicotine]
- increase in leg diameter versus control group, overall (healthy male mice; 3 weeks): significantly greater increase in leg diameter
- average increase of leg diameter, average of day 7, 14 and 21 compared with day 0 (healthy male mice; control 0.5 mm): 1.7 mm
- average increase of leg diameter compared to day 0 (healthy male mice; day 7, control 0.6 mm): 1.6 mm
- average increase of leg diameter compared to day 0 (healthy male mice; day 14, control 2.1 mm): 2.8 mm
- increase of leg diameter compared to day 0 (healthy male mice; day 21, control 1.1 mm decrease): 0.7 mm
- Upper-body Strength, Change Over Study (Post-Pre), Median (Range) ([1]; 1 capsule (3 micrograms of nicotine) prior to exercise, n = 8, bench press 10 repetition maximum): 10.00 (5.00, 20.00)
- Bicep Circumference, Change Over Study (Post-Pre), Median (Range) [1, 2]: 0.45 (−0.20, 2.00) cm
- Body Fat %, Change Over Study (Post-Pre), Median (Range) [1, 2]: −0.65 (−1.90, 0.70) %
- Body Mass Index, Change Over Study (Post-Pre), Median (Range) [1, 2]: −0.13 (−0.79, 0.45)
- Lean Mass %, Change Over Study (Post-Pre), Median (Range) [1, 2]: 0.65 (−0.70, 1.90) %
- Quadricep Circumference, Change Over Study (Post-Pre), Median (Range) [1, 2]: 0.00 (−2.00, 2.50) cm
- Weight, Change Over Study (Post-Pre), Median (Range) [1, 2]: −1.00 (−6.00, 3.00) lbs
- Lower-body Strength, Change Over Study (Post-Pre), Median (Range) ([1]; 1 capsule (3 micrograms of nicotine), n = 8, leg press 10 repetition maximum): 65.00 (15.00, 90.00)
- Upper-body Strength, Change Over Study (Post-Pre), Median (Range) ([1]; 2 capsules (6 micrograms of nicotine) prior to exercise, n = 8, bench press 10 repetition maximum): 10.00 (5.00, 20.00)
- Bicep Circumference, Change Over Study (Post-Pre), Median (Range) [1, 3]: 0.63 (−1.50, 1.70) cm
- Body Fat %, Change Over Study (Post-Pre), Median (Range) [1, 3]: −1.05 (−5.90, 0.10) %
- Body Mass Index, Change Over Study (Post-Pre), Median (Range) [1, 3]: −0.08 (−1.22, 0.94)
- Lean Mass %, Change Over Study (Post-Pre), Median (Range) [1, 3]: 1.05 (−0.10, 5.90) %
- Quadricep Circumference, Change Over Study (Post-Pre), Median (Range) [1, 3]: 0.00 (−2.00, 3.00) cm
- Weight, Change Over Study (Post-Pre), Median (Range) [1, 3]: −0.50 (−8.00, 6.75) lbs
- Lower-body Strength, Change Over Study (Post-Pre), Median (Range) ([1]; 2 capsules (6 micrograms of nicotine), n = 8, leg press 10 repetition maximum): 80.00 (20.00, 320.00)
- Bicep Circumference, Change Over Study (Post-Pre), Median (Range) [1, 4]: 0.45 (−1.50, 2.00) cm
- Body Fat %, Change Over Study (Post-Pre), Median (Range) [1, 4]: −0.95 (−5.90, 0.70) %
- Body Mass Index, Change Over Study (Post-Pre), Median (Range) [1, 4]: −0.11 (−1.22, 0.94)
- Lean Mass %, Change Over Study (Post-Pre), Median (Range) [1, 4]: 0.95 (−0.70, 5.90) %
- Lower-body Strength, Change Over Study (Post-Pre), Median (Range) [1, 4]: 70.00 (15.00, 320.00)
- Quadricep Circumference, Change Over Study (Post-Pre), Median (Range) [1, 4]: 0.00 (−2.00, 3.00) cm
- Upper-body Strength, Change Over Study (Post-Pre), Median (Range) [1, 4]: 10.00 (5.00, 20.00)
- Weight, Change Over Study (Post-Pre), Median (Range) [1, 4]: −0.75 (−8.00, 6.75) lbs
- subjects who noted an increase in overall endurance, leg strength and a strong thermogenic effect ([1]; active (nicotine) group, six-week study): 13 of the 16
- individuals who made significant changes in either body, strength levels or muscle mass or in all three test areas ([1]; active (nicotine) group, placebo five of the sixteen): Fifteen of the sixteen
- change of overall body fat, one subject ([1]; individual subject, six-week study): 32%
- increase of leg strength, five subjects [1, 5]: over 25%
- increase of leg strength, two of the five subjects [1, 5]: 40%
